Data as given in patent US10793520B2, “Sulfonylaminobenzamide compound and pest control agent” (Nippon Soda Co., Ltd., priority 2016, dated 2020).

Each compound was assayed on Mythimna separata (assay: Efficacy test against Mythimna separata (treated artificial feed)). Conditions: in vivo.
Description: Five parts of the compound of the present invention, 93.6 parts of dimethylformamide and 1.4 parts of a polyoxyethylene alkyl aryl ether were mixed together and dissolved to obtain an emulsion (1) containing 5% of the active constituent.
The mortality rate was calculated using the following equation. Mortality rate (%)=(number of dead pests/number of test pests)×100
First, 0.8 g of an artificial feed (Insecta LFS, manufactured by Nosan Corporation) and 1 μl of the emulsion (I) were mixed thoroughly, and 0.2 g of the resulting mixture was placed in each of the treatment areas of a plastic test container (volume: 1.4 ml) to complete preparation of a test feed.
Two second-instar larvae of Mythimna separata were inoculated into each treatment area, and the test container was sealed with a plastic lid. The sealed container was placed in a temperature-controlled room at 25° C., and the mortality rate and the amount of feed consumed were determined on the fifth day. The test was repeated. Further, a test performed under the same conditions, but with the exception of excluding the compound of the present invention from the emulsion (1), was used as a control.

| Compound | mortality rate against Mythimna separata, or amount of feed consumed relative to control |
| --- | --- |
| O=C(Nc1ncc(C(F)(F)F)cc1Cl)c1ccc(C(F)(F)F)cc1NS(=O)(=O)C(F)(F)F [a-23] | 100%, or the amount of feed consumed was 10% or less |
| O=C(Nc1ccc(OC(F)(F)F)cc1)c1ccc(OC(F)(F)F)cc1NS(=O)(=O)C(F)(F)F [a-24] | 100%, or the amount of feed consumed was 10% or less |
| O=C(Nc1ccc(S(F)(F)(F)(F)F)cc1)c1ccc(C(F)(F)F)cc1NS(=O)(=O)C(F)(F)F [a-28] | 100%, or the amount of feed consumed was 10% or less |
| O=C(Nc1ccc(OC(F)(F)F)cc1)c1ccc(Br)cc1NS(=O)(=O)C(F)(F)F [a-29] | 100%, or the amount of feed consumed was 10% or less |
| O=C(Nc1ccc(OC(F)(F)F)cc1)c1ccc(C(F)(F)F)cc1NS(=O)(=O)CC(F)(F)F [a-30] | 100%, or the amount of feed consumed was 10% or less |
| O=C(Nc1ccc(OC(F)(F)F)cc1)c1ccc(-n2cncn2)cc1NS(=O)(=O)C(F)(F)F [a-31] | 100%, or the amount of feed consumed was 10% or less |
| O=C(Nc1ccc(OC(F)(F)F)cc1)c1ccc(-c2ccc(Cl)nc2)cc1NS(=O)(=O)C(F)(F)F [a-32] | 100%, or the amount of feed consumed was 10% or less |
| O=C(Nc1ccc(OC(F)(F)F)cc1)c1ccc(C(F)(F)F)cc1NS(=O)(=O)C(F)F [a-33] | 100%, or the amount of feed consumed was 10% or less |
| O=C(Nc1ccc(OC(F)(F)F)cc1)c1ccc(-c2ccc(C(F)(F)F)nc2)cc1NS(=O)(=O)C(F)(F)F [a-34] | 100%, or the amount of feed consumed was 10% or less |
| O=C(Nc1ccc(OC(F)(F)F)cc1)c1ccc(-c2ccc(C(F)(F)F)cc2)cc1NS(=O)(=O)C(F)(F)F [a-35] | 100%, or the amount of feed consumed was 10% or less |
| N#Cc1ccc(C(=O)Nc2ccc(C(F)(F)F)cc2)c(NS(=O)(=O)C(F)(F)F)c1 [a-36] | 100%, or the amount of feed consumed was 10% or less |
| N#Cc1ccc(NC(=O)c2ccc(C(F)(F)F)cc2NS(=O)(=O)C(F)(F)F)cc1C(F)(F)F [a-37] | 100%, or the amount of feed consumed was 10% or less |
| N#Cc1ccc(C(=O)Nc2ccc(C(F)(F)F)cc2)c(NS(=O)(=O)CC(F)(F)F)c1 [a-38] | 100%, or the amount of feed consumed was 10% or less |
| N#Cc1ccc(NC(=O)c2ccc(C(F)(F)F)cc2NS(=O)(=O)C(F)(F)F)cc1 [a-39] | 100%, or the amount of feed consumed was 10% or less |
| N#Cc1ccc(NC(=O)c2ccc(C#N)cc2NS(=O)(=O)C(F)(F)F)cc1 [a-40] | 100%, or the amount of feed consumed was 10% or less |
| O=C(Nc1ccc(F)c(C(F)(F)F)c1)c1ccc(Cl)cc1NS(=O)(=O)C(F)(F)F [a-41] | 100%, or the amount of feed consumed was 10% or less |
| O=C(Nc1ccc(OC(F)(F)F)cc1)c1ccc(-c2ccc(C(F)(F)F)cc2Cl)cc1NS(=O)(=O)C(F)(F)F [a-42] | 100%, or the amount of feed consumed was 10% or less |
| COC(=O)c1cc(Br)ccc1NC(=O)c1ccc(C(F)(F)F)cc1NS(=O)(=O)C(F)(F)F [a-49] | 100%, or the amount of feed consumed was 10% or less |
| O=C(Nc1ccc([N+](=O)[O-])cc1)c1ccc(C(F)(F)F)cc1NS(=O)(=O)C(F)(F)F [a-50] | 100%, or the amount of feed consumed was 10% or less |
| N#Cc1cc(Cl)ccc1NC(=O)c1ccc(C(F)(F)F)cc1NS(=O)(=O)C(F)(F)F [a-51] | 100%, or the amount of feed consumed was 10% or less |
